In US20140341916A1, “THERAPEUTIC COMBINATIONS AND METHODS OF TREATING MELANOMA” (Genentech, Inc., priority 2011, published 2014):

Key:
[1] = system: A2058 melanoma xenograft; test: In vivo efficacy, subcutaneous melanoma xenograft, tumor volume / % TGI; parameters: species or system mice; conditions: for % TGI Single Agent BRAFi vs. control: A2058
Experimental: Next, efficacy studies were performed using the melanoma cells lines in the xenografts mouse models described above. All studies were conducted in accordance with the Guide for the Care and Use of Laboratory Animals (Ref: Institute of Laboratory Animal Resources (NIH publication no. 85-23), Washington, D.C.: National Academies Press; 1996). 10- to 14-week-old female CRL Nu/Nu or NCr nude mice from Charles River Laboratories were inoculated subcutaneously in the dorsal right flank with either 5×10^6 UACC-257X2.2 cells in HBSS with Matrigel or 5×10^6 A2058 cells in HBSS with Matrigel. When tumor volumes reached approximately 200 mm^3 (day 0), animals were randomized into groups of 10 each.
For single agent efficacy studies, the anti-ETBR ADC candidate Hu5E9v1-ADC was administered as a single intravenous (IV) injection on day 0 at 1 mpk, 3 mpk, or 6 mpk (mg/kg). A control ADC antibody and vehicle control were also administered. Average tumor volumes with standard deviations were determined from 10 animals per group. Tumor volumes were measured twice per week until study end.
The average tumor volumes were determined from 10 animals per group. Tumor volumes were measured twice per week until study end. Tumor volumes were measured in two dimensions (length and width) using UltraCal IV calipers (Model 54 10 111, Fred V. Fowler Company; Newton, Mass.). The following formula was used with Excel, version 12.2.8 (Microsoft; Redmond, Wash.) to calculate tumor volume: Tumor Volume (mm3)=[…]
To analyze the repeated measurement of tumor volumes from the same animals over time, a mixed-modeling Linear Mixed Effects (LME) approach was used (Pinheiro et al. 2009). This approach can address both repeated measurements and a modest drop-out rate due to non-treatment-related termination of animals prior to study end. Cubic regression splines were used to fit a non-linear profile to the time courses of log 2 tumor volume at each dose level. These non-linear profiles were then related to dose within the mixed model. Tumor growth inhibition (TGI) as a percentage of vehicle was calculated as percent area under the fitted curve (AUC) per day in relation to the vehicle, using the following formula:
Using this formula, a TGI value of 100% indicates tumor stasis, of >1% but <100% indicates tumor growth delay, and of >100% indicates tumor regression. To get uncertainty intervals (UIs) for % TGI, the fitted curve and the fitted covariance matrix were used to generate a random sample as an approximation to the distribution of % TGI. The random sample is composed of 1000 simulated realizations of the fitted-mixed model, where the % TGI has been recalculated for each realization. Here, in the reported UI is the value for which 95% of the time, the recalculated values of % TGI will fall in this region given the fitted model. The 2.5 and 97.5 percentiles of the simulated distribution were used as the […] UIs.
Tumors were grown to an average size of approximately 200 mm^3, whereupon animals were randomized into groups of 10 each. […] A single dose of Hu5E9v1-ADC at either 3 mpk or 6 mpk or control, a histidine buffer #8, was administered intraveneously into the tail vein on day 1 (after three doses of RG7204).
To do this, the in vivo efficacy for various combinations of Hu5E9v1-ADC and MEKi-623 and/or MEKi-973 were evaluated against A2058 and SK-MEL-23 and IPC-298 melanoma in vivo models, performed as described above in Example 4. An appropriate methylcellulose tween vehicle control (0.5% methylcellulose, 0.2% Tween-80 (MCT) or MEK inhibitor at doses of 1 mpk, 3 mpk or 7.5 mpk were administered orally once a day×21 days beginning on study Day 0. A single 3 mpk or 6 mpk dose of Hu5E9v1-ADC or control, a histidine buffer #8, was administered intraveneously (after two doses of a MEK inhibitor) via tail vein at study Day 1.

[2] = system: A2058; test: In vitro killing of A2058 by RG7204 (data not shown); assay type: cell-based, human
[3] = system: ETBR transcript; test: PD study, ETBR transcript in COLO 829 tumors, Taqman, normalized to GAPDH; assay type: in vivo, mice; conditions: RG7204 10 mpk or 30 mpk twice a day for 3 days
Experimental: A2058 or COLO 829 tumors were grown to an average size of approximately 200 mm^3, whereupon animals were randomized into groups of 5-6 each. For the BRAFi PD study, an appropriate vehicle control (Klucel LF) or RG7204 at doses of 10 mpk or 30 mpk were administered twice a day for 3 days (FIG. 27A). For the MEKi PD study, an appropriate vehicle control or MEKi-973 at doses of 5 mpk and 10 mpk were administered orally once a day for 3 days (FIG. 27B). Flash frozen tumors harvested at end of study were homogenized and processed for RNA and/or protein. Taqman assays were set up using reagents from Applied Biosystems (ABI, Foster City, Calif.) and assayed using 7500 Real Time PCR machine and software from ABI. Primer-probe sets were designed with primers flanking a fluorogenic probe dual labeled with Reporter dye FAM and quencher dye TAMRA. ETBR transcript levels in the tumors were normalized against transcript levels of reference genes such as Hprt1 (hypoxanthine phosphoribosyltransferase 1) or GAPDH (glyceraldehyde 3 phosphate dehydrogenase) using primer and probe sets that were specific to the human homologs of these genes.

[4] = system: phosphor-ERK; test: Phospho-ERK in melanoma cells, Western blot; assay type: cell-based, human; conditions: IPC-298 cells (BRAF wild-type, RAS Q61L), 24 h
Experimental: Melanoma cell lines UACC-257X2.2, A2058, COLO 829, IPC-298 (ATCC) were treated with a BRAF inhibitor drug (“BRAFi”), specifically RG7204 at varying concentrations by adding the appropriate drug volume to cells in culture for 24 h on four-well dishes.
To test whether the increase in ETBR transcripts due to BRAFi treatment also results in any changes in ETBR total protein levels, Western blot experiments were performed on the same cell lines treated with BRAFi RG7204 as described above. For Western blotting, the following reagents were used: for detection of proteins: an anti-ETBR in-house generated monoclonal antibody 1H1.8.5, anti-Phospho-p44/42 MAPK (Erk1/2) (Thr202/Tyr204) antibody (9101, Cell Signaling Technology), anti-p44/42 MAPK (Erk1/2) antibody (9102, Cell Signaling Technology) and as controls, a rabbit polyclonal anti-GAPDH (glyceraldehyde-3-phosphate dehydrogenase) antibody (PA1-987; Affinity Bioreagents) and mouse monoclonal anti-β-Tubulin antibody (556321, BD Pharmingen). The results for UACC-257X2.2 are shown in FIG. 4B, the results for A2058 are shown in FIG. 8B, the results for COLO 829 are shown in FIG. 6B and the results for IPC-298 are shown in FIG. 10.

SMILES: CCCS(=O)(=O)Nc1ccc(F)c(C(=O)c2c[nH]c3ncc(-c4ccc(Cl)cc4)cc23)c1F [RG7204, propane-1-sulfonic acid {3-[5-(4-chlorophenyl)-1H-pyrrolo[2,3-b]pyridine-3-carbonyl]-2,4-difluoro-phenyl}-amide]
- single agent efficacy ([1]; 10 mg/kg RG7204 alone, orally twice a day 21 days): did not show single agent efficacy
- % TGI Single Agent BRAFi vs. control ([1]; BRAFi Qdx21 10 mg/kg): 13%
- % TGI Single Agent BRAFi vs. control ([1]; BRAFi Qdx21 30 mg/kg): 38%
- in vitro killing efficacy [2]: > 20 µM
- ETBR mRNA in tumors vs control vehicle [3]: induces ETBR mRNA in vivo
- phosphor-ERK level [4]: appears to activate the levels of phosphor-ERK
